From patent US8877798B2, “1-aryl-3-azabicyclo[3.1.0]hexanes: preparation and use to treat neuropsychiatric disorders” (priority 2005, dated 2014)
Where two headings read alike, the source gives them in different places.

Legend:
[1] = molecular target: 5-HT uptake, rat brain synaptosomes (Rattus norvegicus (Rat), UniProt P31652); experiment: 5-HT uptake inhibition in rat brain synaptosomes; format: biochemical
Procedure: (§1) The effects of exemplary compounds of the invention on the cellular uptake of norepinephrine (NE), dopamine (DA) and serotonin (5-HT) were tested in preparations of synaptosomes from different rat brain regions using the previously-reported techniques referenced below.
(§2) Whole brains were obtained from normal rats. Synaptosomal preparations were made from either whole brain (5-HT), striatum (DA) or hypothalamus (NE) by gentle disruption in 10 volumes (w/v) of 0.32 M sucrose (0-4° C.) using a Teflon-glass homogenizer. The homogenate was then centrifuged at 1000×g for 10 min. The supernatant was retained and centrifuged at 23000 g for 20 min. The resulting pellet was gently resuspended in 200 volumes of 0.32 M sucrose (0-4° C.) using the Teflon-glass homogenizer. Aliquots (250 μL) of this preparation were added to tubes, along with 0.2 μCi/mL of [^3H]5-HT, [^3H]DA, or [^3H]NE, 200 μL of the test compounds (to yield final concentrations of 100 nM, 300 nM, 1 μM, 3 μM, 10 μM, 30 μM or 100 μM) and 1 mL of Krebs-Ringer bicarbonate buffer (pH 7.4). The mixtures were incubated for either 15 (DA and 5-HT uptake) or 20 (NE uptake) minutes at 37° C. At the end of this period, the assay was terminated by rapid filtration over Whatman GF/C glass fiber filters. The filters were rinsed 3 times with 4 ml of Krebs-Ringer bicarbonate buffer (0-4° C.), and the radioactivity retained on the filters measured by liquid scintillation spectrometry.
(§3) Each assay was run according to the description of the respective publications cited above, and according to the following parameters/reagents/conditions.
(§4) In each experiment, the respective reference compound was tested concurrently with the test compounds in order to assess the assay suitability. It was tested at several concentrations (for IC50 value determination). The assay was considered valid if the suitability criteria were met, in accordance with the corresponding Standard Operating Procedure.
(§5) Individual and mean values are presented with the results. The IC50 values (concentration causing a half-maximal inhibition of control values) were determined by non-linear regression analysis of the inhibition curves using Hill equation curve fitting.

[2] = molecular target: dopamine (DA) uptake, rat striatum synaptosomes (Rattus norvegicus (Rat), UniProt P23977); experiment: Dopamine (DA) uptake inhibition in rat striatum synaptosomes; format: biochemical
Chain of dopamine (DA) uptake, rat striatum synaptosomes (P23977 whole entry): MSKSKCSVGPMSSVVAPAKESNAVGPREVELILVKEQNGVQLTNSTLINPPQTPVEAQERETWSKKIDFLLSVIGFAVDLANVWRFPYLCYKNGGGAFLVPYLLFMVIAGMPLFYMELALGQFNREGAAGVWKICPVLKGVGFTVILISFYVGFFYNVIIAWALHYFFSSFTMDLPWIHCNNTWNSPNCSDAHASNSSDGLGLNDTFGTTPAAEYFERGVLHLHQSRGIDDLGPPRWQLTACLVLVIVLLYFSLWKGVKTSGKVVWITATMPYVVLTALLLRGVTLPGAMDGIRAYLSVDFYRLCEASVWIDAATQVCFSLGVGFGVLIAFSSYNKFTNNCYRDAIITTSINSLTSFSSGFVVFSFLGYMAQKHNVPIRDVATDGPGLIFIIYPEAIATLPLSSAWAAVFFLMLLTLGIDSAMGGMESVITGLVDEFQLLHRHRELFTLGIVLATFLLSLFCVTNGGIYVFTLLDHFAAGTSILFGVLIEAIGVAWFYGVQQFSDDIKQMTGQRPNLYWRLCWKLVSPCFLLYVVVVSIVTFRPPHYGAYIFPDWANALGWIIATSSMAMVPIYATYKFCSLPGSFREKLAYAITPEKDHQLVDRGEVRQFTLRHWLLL
Procedure: as §1, §2, §3, §4
as §5, with “The results of these uptake inhibition assays are expressed below as a percent of control values obtained in the […] of the test compounds. Individual” for “Individual”

[3] = molecular target: NET (Homo sapiens (Human), UniProt P23975); experiment: NET binding
[4] = molecular target: DAT (Homo sapiens (Human), UniProt Q01959); experiment: DAT binding
[5] = molecular target: SERT (Homo sapiens (Human), UniProt P31645); experiment: SERT binding
[6] = tested on: reuptake of norepinephrine, serotonin and dopamine; details: reported in the literature (Skolnick et al. 2003); cited from earlier work
[7] = [3H]5-HT, rat brain synaptosomes, 15 min at 37° C., read-out: Uptake IC50 (nM) 5-HT

SMILES	IC50 [1, 7] [nM]	IC50 [2] [nM]	Ki ([3]; read-out: Binding NET Ki) [nM]	Ki ([4]; read-out: Binding DAT Ki) [nM]	Ki ([5]; read-out: Binding SERT Ki) [nM]	further results
Cc1ccc([C@@]23CC2CN(C)C3)cc1F (stereo partly shown)	836	383	–	–	–	–
CN1CC2C[C@]2(c2ccc(F)c(Cl)c2)C1 (stereo partly shown)	835	–	–	–	–	–
CN1CC2C[C@@]2(c2ccc(Cl)c(F)c2)C1 (stereo partly shown)	413	437	–	–	–	–
CC(C)N1CC2C[C@@]2(c2ccc(Cl)c(Cl)c2)C1 (stereo partly shown)	170	330	510	25	330	–
c1ccc2cc([C@@]34CNCC3C4)ccc2c1 (stereo partly shown)	–	98	–	–	–	IC50 [1]: 170 nM
CN1CC2C[C@@]2(c2cccc3ccccc23)C1 (stereo partly shown)	–	903	–	–	–	–
Cc1ccc(C23CC2CN(C)C3)cc1F (stereo not shown)	110	700	260	270	830	–
CN1CC2C[C@@]2(c2ccc(Cl)c(Cl)c2)C1 (stereo partly shown)	23	120	81	105	16	–
CCCCN1CC2C[C@]2(c2ccc(Cl)c(Cl)c2)C1 (stereo partly shown)	2600	1200	1100	215	8900	–
CCN1CC2C[C@@]2(c2ccc(Cl)c(Cl)c2)C1 (stereo partly shown)	56	80	32	13	88	–
Cc1ccc([C@]23CNCC2C3)cc1F (stereo partly shown)	133	401	–	–	–	–
Clc1ccc(C23CNCC2C3)cc1Cl (stereo not shown) [1-(3,4-dichlorophenyl)-3-azabicyclo[3.1.0]hexane]	–	–	–	–	–	inhibition of reuptake of norepinephrine, serotonin and dopamine [6]: inhibit reuptake of norepinephrine, serotonin and dopamine
CC(C)N1CC2C[C@]2(c2ccc(Cl)c(Cl)c2)C1 (stereo partly shown)	100	430	5150	72	132	–
CN1CC2C[C@]2(c2ccc3ccccc3c2)C1 (stereo partly shown)	117	147	–	–	–	–
CC(C)(C)N1CC2CC2(c2ccc(Cl)c(Cl)c2)C1 (stereo not shown)	–	–	–	–	–	IC50 [1]: 240 nM; IC50 ([2]; [3H]DA, rat striatum synaptosomes, 15 min at 37° C., read-out: Uptake IC50 (nM) DA): 1500 nM; Ki [3]: 9300 nM; Ki [4]: 420 nM; Ki [5]: 800 nM
Fc1cc([C@]23CNCC2C3)ccc1Cl (stereo partly shown)	252	420	–	–	–	–
CN1CC2CC2(c2ccc(F)c(F)c2)C1 (stereo not shown)	400	1800	990	1900	1600	–
CN1CC2CC2(c2ccc(F)cc2F)C1 (stereo not shown)	1100	7400	6600	–	–	–
CN1CC2CC2(c2cccc3ccccc23)C1 (stereo not shown)	119	512	–	–	–	–
Clc1ccc(C23CC2CN(C2CC2)C3)cc1Cl (stereo not shown)	2600	1500	9500	1700	3700	–
Cc1ccc(C23CNCC2C3)cc1F (stereo not shown)	266	457	–	–	–	–
Fc1ccc(C23CNCC2C3)cc1Cl (stereo not shown)	310	1400	1700	680	230	–

SMILES	IC50 [1, 7] [nM]	IC50 [2] [nM]	Ki ([3]; read-out: Binding NET Ki) [nM]	Ki ([4]; read-out: Binding DAT Ki) [nM]	Ki ([5]; read-out: Binding SERT Ki) [nM]	further results
CCCN1CC2C[C@]2(c2ccc(Cl)c(Cl)c2)C1 (stereo partly shown)	390	770	1070	170	2400	–
CCOc1ccc2cc(C34CC3CN(C)C4)ccc2c1 (stereo not shown)	210	360	–	–	–	–
CN1CC2CC2(c2ccc(Cl)cc2Cl)C1 (stereo not shown)	520	10000	6200	–	500	–
CCCN1CC2CC2(c2ccc(Cl)c(Cl)c2)C1 (stereo not shown)	470	1000	1830	250	1670	–
CN1CC2C[C@]2(c2ccc(Cl)c(Cl)c2)C1 (stereo partly shown)	87	130	490	62	125	–
CN1CC2CC2(c2ccc(F)c(Cl)c2)C1 (stereo not shown)	79	770	350	640	190	–
CCCN1CC2C[C@@]2(c2ccc(Cl)c(Cl)c2)C1 (stereo partly shown)	590	1800	4000	220	2000	–
Fc1ccc([C@]23CNCC2C3)cc1Cl (stereo partly shown)	186	572	–	–	–	–
CCN1CC2C[C@]2(c2ccc(Cl)c(Cl)c2)C1 (stereo partly shown)	45	190	585	46	113	–
CCCCN1CC2C[C@@]2(c2ccc(Cl)c(Cl)c2)C1 (stereo partly shown)	3000	2200	1900	395	7600	–
COc1ccc2cc(C34CC3CN(C)C4)ccc2c1 (stereo not shown)	14	91	–	–	–	–
CCCCN1CC2CC2(c2ccc(Cl)c(Cl)c2)C1 (stereo not shown)	1200	78	2200	240	6100	–
Cc1ccc([C@]23CC2CN(C)C3)cc1F (stereo partly shown)	702	917	–	–	–	–
Cc1cc(C23CC2CN(C)C3)ccc1F (stereo not shown)	200	370	920	2200	540	–
CN1CC2C[C@@]2(c2ccc(F)c(Cl)c2)C1 (stereo partly shown)	362	494	–	–	–	–
CCOc1ccc2cc(C34CNCC3C4)ccc2c1 (stereo not shown)	700	563	–	–	–	–
CN1CC2CC2(c2ccc([N+](=O)[O-])c(Cl)c2)C1 (stereo not shown)	790	–	–	–	710	–
CN1CC2CC2(c2ccc3ccccc3c2)C1 (stereo not shown)	31	350	520	68	6	–
CC(C)N1CC2CC2(c2ccc(Cl)c(Cl)c2)C1 (stereo not shown)	30	260	827	39	124	–
c1ccc2cc([C@]34CNCC3C4)ccc2c1 (stereo partly shown)	–	49	–	–	–	IC50 [1]: 65 nM
CN1CC2C[C@@]2(c2ccc3ccccc3c2)C1 (stereo partly shown)	< 10	82	–	–	–	–
COc1ccc2cc(C34CNCC3C4)ccc2c1 (stereo not shown)	82	208	–	–	–	–
